Assay results as given in patent USRE47689E1, “Compounds for treating spinal muscular atrophy” (PTC Therapeutics, Inc., priority 2011, dated 2019).

Experiments:
[1] = tested on: full length and Δ7 SMN2 mRNAs; test: Endogenous SMN2 mRNA end-point semi-quantitative RT-PCR splicing assay in cultured cells; assay type: cell-based, human; conditions: GM03813 Type 1 SMA patient fibroblasts, increasing concentrations, 24 hrs, agarose gel
Protocol: The endpoint reverse transcription-PCR splicing assay is used to visualize and quantify the levels of the full length and Δ7 SMN2 mRNAs in primary cells and cell lines containing the SMN2 gene treated with a test compound.
Protocol. GM03813 SMA patient cells (5,000 cells/well) are seeded in 200 μL of cell culture medium (DMEM plus 10% FBS) in 96-well flat-bottom plates and the plate is immediately swirled to ensure proper dispersal of cells, forming an even monolayer of cells. Cells are allowed to attach for at least 4-6 hrs. Test compounds are serially diluted 3.16-fold in 100% DMSO to generate a 7-point concentration curve. A solution of test compound (1 μL, 200× in DMSO) is added to each test well and 1 μL DMSO is added to each control well. The plate is incubated for 24 hrs in a cell culture incubator (37° C., 5% CO2, 100% relative humidity). The cells are then lysed in Cells-To-Ct lysis buffer and the lysate is stored at −80° C.
SMN FL and Δ7 mRNAs are identified using the following primers in Table 6. These primers hybridize to a nucleotide sequence in exon 6 (SMN Forward C, SEQ ID NO. 11) (nucleotide 43 to nucleotide 63) and exon 8 (SMN Reverse C, SEQ ID NO. 12) (nucleotide 51 to nucleotide 73) common to human SMN1 and SMN2 mRNAs. Since the SMA patient cells used in Example 4 contain only the SMN2 gene, RT-PCR can visualize and quantify only SMN2 full-length and SMN2 Δ7 mRNAs.
To synthesize cDNA, 5 μL of lysate, 4 μL of 5× iScript reaction mix, 1 μL of reverse transcriptase, and 10 μL of water are combined and incubated 5 min at 25° C. followed by 30 min at 42° C., followed by 5 min at 85° C. cDNA solution is stored at −20° C.
To perform endpoint PCR, 5 μL of cDNA, 0.2 μL of 100 μM forward primer, 0.2 μL of 100 μM reverse primer, and 22.5 μL of polymerase super mix are combined in a 96 well semiskirted PCR plate. PCR is carried out at the following temperatures for indicated time: Step 1: 94° C. (2 min), Step 2: 94° C. (30 sec), Step 3: 55° C. (30 sec), Step 4: 68° C. (1 min), then repeat Steps 2 to 4 for a total of 33 cycles, then hold at 4° C.
10 μL of each PCR sample is electrophoretically separated on a 2% agarose E-gel for 14 minutes stained with ds DNA staining reagents (e.g., ethidium bromide) and visualized using a gel imager.

[2] = tested on: full length and Δ7 SMN2 mRNAs; test: SMN2 mRNA RT-qPCR splicing assay in animal tissues; assay type: in vivo, mouse; conditions: C/C-allele SMA mice, brain and muscle, 10 mg/kg oral gavage twice per day for 10 days
Protocol: The reverse transcription-quantitative PCR-based (RT-qPCR) assay is used to quantify the levels of the full length and Δ7 SMN2 mRNAs in tissues from mice treated with test compound.
Protocol. C/C-allele SMA mice are treated by oral gavage two times per day for 10 days with test compounds resuspended in 0.5% HPMC and 0.1% Tween-80. Tissue samples were collected and snap frozen for RNA purification.
Tissue samples (20-40 mg) are homogenized in QIAzol Lysis Reagent for 2 minutes at 20 Hz in the TissueLyser II using one stainless steel bead. After addition of chloroform, the homogenate is separated into aqueous and organic phases by centrifugation. RNA partitioned to the upper, aqueous phase is extracted and ethanol is added to provide appropriate binding conditions. The sample is then applied to the RNeasy spin column from the RNeasy Mini Kit, where total RNA binds to the membrane. The RNA is eluted in RNase-free water then stored at −20° C. and subsequently analyzed using the TaqMan RT-qPCR on the 7900HT Thermocycler. Total RNA is diluted ten fold and 2.5 μL of the diluted sample is added to the TaqMan RT-qPCR mixture.
SMN2 spliced products are identified using the following primers and probes in Table 7. Primer SMN FL Forward B (SEQ ID NO. 7) hybridizes to a nucleotide sequence in exons 7 and 8, primer SMN Δ7 Forward B (SEQ ID NO. 8) hybridizes to a nucleotide sequence in exons 6 and 8, primer SMN Reverse B (SEQ ID NO. 9) hybridizes to a nucleotide sequence in exon 8, probe SMN Probe B (SEQ ID NO. 10) hybridizes to a nucleotide sequence in exon 8. These primers and probe hybridize to nucleotide sequences common to human SMN1 and SMN2 mRNAs. Since the SMA patient cells used in Example 5 contain only the SMN2 gene, RT-qPCR can quantify only SMN2 full-length and Δ7 mRNAs.
The SMN forward and reverse primers are used at final concentrations of 0.4 μM. The SMN probe is used at a final concentration of 0.15 μM. The SMN-GAPDH Mix (10 μL total volume) is prepared by combining 5 μL of 2×RT-PCR buffer, 0.4 μL of 25×RT-PCR enzyme mix, 0.5 μL of 20×GAPDH primer-probe mix, 1.505 μL of water, 2.5 μL of RNA solution, 0.04 μL of 100 μM forward primer, 0.04 μL of 100 μM reverse primer, and 0.015 μL of 100 μM SMN probe. […]
The increase of SMN2 FL and decrease in SMN2 Δ7 mRNAs relative to those in tissues from animals treated with vehicle control are determined from real-time PCR data using a modified ΔΔCt method (as described in Livak and Schmittgen, Methods, 2001, 25:402-8). The amplification efficiency E is calculated from the slope of the amplification curve for SMN2 FL, SMN2 Δ7, and GAPDH individually. The abundances of SMN2 FL, SMN2 Δ7, and GAPDH are then calculated as (1+E)^−Ct, where Ct is the threshold value for each amplicon. […]

Structure (SMILES)	SMN2 FL mRNA [1]	SMN2 Δ7 mRNA [1]	SMN2 FL mRNA relative to vehicle [2]	SMN2 Δ7 mRNA relative to vehicle [2]
CC(C)NCCc1ccc2cc(-c3nc4c(Cl)cccc4s3)c(=O)oc2c1 [Cpd 35, 3-(4-chloro-1,3-benzothiazol-2-yl)-7-[2-(propan-2-ylamino)ethyl]-2H-chromen-2-one]	progressively more SMN2 FL mRNA	less SMN2 Δ7 mRNA	substantially more SMN2 FL mRNA	less SMN2 Δ7 mRNA
CCN1CCN(c2ccc3cc(-c4cn5cc(C)nc(C)c5n4)c(=O)oc3c2)C[C@@H]1C [Cpd 626, 3-(6,8-dimethylimidazo[1,2-a]pyrazin-2-yl)-7-[(3S)-4-ethyl-3-methylpiperazin-1-yl]-2H-chromen-2-one]	progressively more SMN2 FL mRNA	less SMN2 Δ7 mRNA	substantially more SMN2 FL mRNA	less SMN2 Δ7 mRNA
